Experimental data reported in US9090599B2, “Heteroarylmethyl amides” (Hoffman-La Roche Inc., priority 2010, dated 2015).
Where two headings read alike, the source gives them in different places.

Experiments:
ABCA1 protein = experiment: Detection of upregulation of ABCA1 protein in THP-1 macrophage cells (ApoA-I binding, high content imaging); type: cell-based; conditions: 24 hrs with compound, AlexaFluor 647 ApoA-I binding, read-out: ABCA1 protein increasing efficacy EC50
Procedure: The ability of compounds of the invention to increase the level of ABCA1 protein is determined in replicate cultures of THP-1 macrophage cells in 96-well microplates. Cells are plated at an initial density of 100,000 cells/well in 100 μl medium and differentiated to adherent macrophages with the addition of PMA (100 nM) for 68 hrs in 10% fetal bovine serum, 3 μl/L of b-mercaptoethanol, RPMI-1640 medium. Then, cells are incubated with RPMI-1640 medium containing 1% FCS, 25 μg/ml acetylated LDL, for 24 hours at 37°. Following incubation with acetylated LDL, cells are washed twice with 50 μl PBS and incubated with 100 μl of RPMI-1640 medium containing the compound of interest solubilized in DMSO for an additional 24 hrs. The final DMSO concentration in presence of cells is maintained at 0.5%. ApoA-I binding assay using High Content Image Analysis is initiated by replacing with fresh medium, RPMI without Phenol Red, 0.2% BSA containing AlexaFluor®647 labeled ApoA-I for 2 h/37° C./5% CO2. Then, cells are fixed with 4% Formaldehyde in PBS (15 min, RT). Following Nuclei are stained with Hoechst solution (3 μM PBS) and Cytoplasm with Cell Mask Blue (2 μg/ml PBS), 15 min, RT. Finally the stained cells are fixed with a second round of formaldehyde treatment. Fixed stained cells are washed and kept in PBS at 4° C. and can be read immediately until one month after preparation.
The Alexa Fluor 647-labeled Apolipoprotein A-I (20 nM) was prepared as follows: Human recombinant Apolipoprotein A-I (ApoA-I) was exchanged to a buffer of 0.02 M NaHCO3 at pH 8.2 on an NAP desalting column (GE Healthcare) and brought to a concentration to 40 μM (1.13 mg/ml) by adjustment with the same buffer. The ApoA-I was fluorescently labeled by incubation with Alexa Fluor carboxylic acid succimidyl ester. (Alexa Fluor 647, Invitrogen A-20006) at a 2:1 molar ratio (Alexa to ApoA-I) for 1 h under shaking at RT. The remaining unconjugated label was removed by buffer exchange to 0.02M NaHCO3 at pH 8.2.
Imaging and data collection were performed on an OPERA confocal microplate imaging reader using a 20× water immersion objective and UV360 or 405 laser to identify the cell nuclei and a 635 laser to identify the fluorescent ApoA-I. Eight fields of view are captured per well. Image capture and analysis was performed with the Acapella software. Background fluorescence detected in control wells without ApoA-I was subtracted.
Using XLfit3 program (ID Business Solutions Ltd. UK), the model 205 for Dose Response One Site is used to calculate the EC50 values. […] Preferably, the compounds of the present invention have EC50 values in a range of 0.1 μM to 3 μM.

human CB1 receptor = biological target: T1, human CB1 receptor (Homo sapiens, UniProt P21554); experiment: CB1 receptor affinity, [3H]-CP-55,940 displacement, HEK cell membranes; type: binding; conditions: read-out: CB1 receptor affinity [% inhibition @ 10 μM]
T1 construct: expressed in transfected cells; host or cells: human embryonic kidney (HEK) cells, Semliki Forest Virus system, membrane preparations
T1 sequence (P21554 whole entry): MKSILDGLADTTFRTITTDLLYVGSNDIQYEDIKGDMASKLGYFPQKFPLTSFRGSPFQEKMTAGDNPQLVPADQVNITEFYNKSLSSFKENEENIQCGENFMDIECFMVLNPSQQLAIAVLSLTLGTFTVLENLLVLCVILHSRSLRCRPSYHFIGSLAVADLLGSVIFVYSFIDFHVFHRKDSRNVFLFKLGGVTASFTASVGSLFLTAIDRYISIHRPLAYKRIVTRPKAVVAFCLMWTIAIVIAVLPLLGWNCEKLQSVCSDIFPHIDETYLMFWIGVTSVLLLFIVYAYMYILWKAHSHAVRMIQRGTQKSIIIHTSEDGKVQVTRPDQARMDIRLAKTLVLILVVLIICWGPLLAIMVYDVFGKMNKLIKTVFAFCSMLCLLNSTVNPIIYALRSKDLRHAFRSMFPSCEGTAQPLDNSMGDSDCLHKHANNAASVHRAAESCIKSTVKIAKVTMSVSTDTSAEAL
Outline: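 Membranes from HEK cells transiently expressing human CB1 (Semliki Forest Virus system) incubated with [3H]-CP-55,940 with or without test compound. Bound and free ligand separated by glass-fibre filtration and bound radioactivity counted by scintillation. Compounds tested at 10 μM, values reported as % inhibition of radioligand binding.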

human CB2 receptor = biological target: T2, human CB2 receptor (Homo sapiens, UniProt P34972); experiment: CB2 receptor affinity, [3H]-CP-55,940 displacement, HEK cell membranes; type: binding; conditions: 10 μM compound, radioligand [3H]-CP-55,940
T2 construct: expressed in transfected cells; host or cells: human embryonic kidney (HEK) cells, Semliki Forest Virus system, membrane preparations
T2 sequence (P34972 whole entry): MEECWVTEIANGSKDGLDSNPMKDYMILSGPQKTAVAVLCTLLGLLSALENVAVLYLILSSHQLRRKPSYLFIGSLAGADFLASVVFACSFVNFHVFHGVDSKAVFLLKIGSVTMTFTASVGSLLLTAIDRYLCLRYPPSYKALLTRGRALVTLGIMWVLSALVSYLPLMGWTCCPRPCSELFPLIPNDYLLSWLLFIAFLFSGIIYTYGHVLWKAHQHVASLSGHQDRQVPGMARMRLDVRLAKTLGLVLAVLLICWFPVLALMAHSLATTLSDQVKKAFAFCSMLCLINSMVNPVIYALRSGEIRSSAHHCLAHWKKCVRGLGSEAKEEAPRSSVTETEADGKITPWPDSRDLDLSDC
Outline: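 Membranes from HEK cells transiently expressing human CB2 (Semliki Forest Virus) incubated with [3H]-CP-55,940 ± compound at 10 μM. Bound ligand separated by glass-fibre filtration and counted by scintillation; reported as % inhibition at 10 μM.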

[1] = 10 μM compound, radioligand [3H]-CP-55,940

SMILES | EC50 (ABCA1 protein) | inhibition at 10 µM (human CB1 receptor; [1]) | inhibition at 10 µM (human CB2 receptor) | inhibition at 10 µM (human CB1 receptor)
CC(C)c1cc(CNC(=O)c2cc(-c3ccc(Cl)cc3)c(OCC(F)(F)F)cn2)no1 [Example 27, 4-(4-chlorophenyl)-N-((5-isopropylisoxazol-3-yl)methyl)-5-(2,2,2-trifluoroethoxy)picolinamide] | 970 nM | 40% | 24% | 
O=C(NCc1coc(C2CC2)n1)c1cc(-c2ccc(Cl)cc2)c(OCC(F)(F)F)cn1 [Example 70, 4-(4-chlorophenyl)-N-((2-cyclopropyloxazol-4-yl)methyl)-5-(2,2,2-trifluoroethoxy)picolinamide] | 1560 nM | 28% | 14% | 
O=C(NCc1nc(C(F)(F)F)no1)c1cnc(OCC(F)(F)F)c(-c2ccc(F)c(Cl)c2)c1 [Example 81, 5-(3-chloro-4-fluorophenyl)-6-(2,2,2-trifluoroethoxy)-N-((3-(trifluoromethyl)-1,2,4-oxadiazol-5-yl)methyl)nicotinamide] | 890 nM | 4% | 7% | 
O=C(NCc1nc(C(F)(F)F)no1)c1cnc(OCC(F)(F)F)c(-c2ccc3nonc3c2)c1 [Example 100, 5-Benzo[1,2,5]oxadiazol-5-yl-6-(2,2,2-trifluoro-ethoxy)-N-(3-trifluoromethyl-[1,2,4]oxadiazol-5-yl-methyl)-nicotinamide] | 580 nM | 15% | 8% | 
Cc1ccc(-c2cc(C(=O)NCc3nc(C(F)(F)F)no3)cnc2OCC(F)(F)F)cc1 [Example 79, 5-p-tolyl-6-(2,2,2-trifluoroethoxy)-N-((3-(trifluoromethyl)-1,2,4-oxadiazol-5-yl)methyl)nicotinamide] | 1170 nM | 42% | 4% | 
Cc1cc(-c2cc(C(=O)NCc3csc(C4CC4)n3)cnc2OCC(F)(F)F)ccc1Cl [Example 71, 5-(4-chloro-3-methylphenyl)-N-((2-cyclopropylthiazol-4-yl)methyl)-6-(2,2,2-trifluoroethoxy)nicotinamide] | 4290 nM | 2% | -7% | 
O=C(NCc1cc(C(F)(F)F)no1)c1ncc(OCC(F)(F)F)c(-c2ccc(Cl)cc2)n1 [Example 61, 4-(4-chloro-phenyl)-5-(2,2,2-trifluoro-ethoxy)-pyrimidine-2-carboxylic acid (3-trifluoromethyl-isoxazol-5-ylmethyl)-amide] | 820 nM | 32% | 17% | 
CC(C)c1cc(CNC(=O)c2cnc(OCC(F)(F)F)c(-c3ccc(Cl)cc3)c2)no1 [Example 31, 5-(4-chlorophenyl)-N-((5-isopropylisoxazol-3-yl)methyl)-6-(2,2,2-trifluoroethoxy)nicotinamide] | 530 nM |  | 11% | 47%
O=C(NCc1cc(C2CC2)on1)c1cc(-c2ccc(Cl)cc2)c(OCC(F)(F)F)cn1 [Example 28, 4-(4-chlorophenyl)-N-((5-cyclopropylisoxazol-3-yl)methyl)-5-(2,2,2-trifluoroethoxy)picolinamide] | 870 nM | 42% | 29% | 
CCc1cc(CNC(=O)c2cc(-c3ccc(Cl)cc3)c(OCC(F)(F)F)cn2)on1 [Example 3, 4-(4-chloro-phenyl)-5-(2,2,2-trifluoro-ethoxy)-pyridine-2-carboxylic acid (3-ethyl-isoxazol-5-ylmethyl)-amide] | 1240 nM |  | 18% | 38%
Cc1cc(-c2cc(C(=O)NCc3csc(C4CC4)n3)ncc2OCC(F)(F)F)ccc1Cl [Example 76, 4-(4-chloro-3-methylphenyl)-N-((2-cyclopropylthiazol-4-yl)methyl)-5-(2,2,2-trifluoroethoxy)picolinamide] | 1640 nM | 8% | 9% | 
COc1cc(CNC(=O)c2cnc(OCC(F)(F)F)c(-c3ccc(Cl)cc3)c2)on1 [Example 5, 5-(4-chloro-phenyl)-N-(3-methoxy-isoxazol-5-ylmethyl)-6-(2,2,2-trifluoro-ethoxy)-nicotinamide] | 2100 nM | 48% | 5% | 
Cc1ccc(-c2cc(C(=O)NCc3nc(C(F)(F)F)no3)cnc2OCC(F)(F)F)cc1Cl [Example 80, 5-(3-chloro-4-methylphenyl)-6-(2,2,2-trifluoroethoxy)-N-((3-(trifluoromethyl)-1,2,4-oxadiazol-5-yl)methyl)nicotinamide] | 3130 nM | 15% | -4% | 
O=C(NCc1nc(C(F)(F)F)no1)c1cc(-c2ccc(Cl)cc2)c(OCC2CC2)cn1 [Example 18, 4-(4-chlorophenyl)-5-(cyclopropylmethoxy)-N-((3-(trifluoromethyl)-1,2,4-oxadiazol-5-yl)methyl)picolinamide] | 6910 nM | 28% | 24% | 
Cc1cc(-c2cc(C(=O)NCc3nc(C(F)(F)F)no3)cnc2OC2CCC2)ccc1Cl [Example 94, 5-(4-chloro-3-methylphenyl)-6-cyclobutoxy-N-((3-(trifluoromethyl)-1,2,4-oxadiazol-5-yl)methyl)nicotinamide] | 310 nM | 19% | 2% | 
COc1cc(CNC(=O)c2ncc(OCC(F)(F)F)c(-c3ccc(Cl)c(Cl)c3)n2)on1 [Example 25, 4-(3,4-dichlorophenyl)-N-((3-methoxyisoxazol-5-yl)methyl)-5-(2,2,2-trifluoroethoxy)pyrimidine-2-carboxamide] | 1470 nM | 11% | 17% | 
CC(C)c1cc(CNC(=O)c2cc(-c3ccc(Cl)cc3)c(OCC(F)(F)F)cn2)on1 [Example 2, 4-(4-chloro-phenyl)-5-(2,2,2-trifluoro-ethoxy)-pyridine-2-carboxylic acid (3-isopropyl-isoxazol-5-ylmethyl)-amide] | 1090 nM | 30% | 14% | 
